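In this assay, cells in 96-well plates receive the compound at five concentrations for 48 hours. Endpoints are linearly interpolated between the surrounding concentrations. At the GI50, growth is halved.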 Active and inactive are the calls of the source. Cut-off read from the data, not from the text of the source: active = GI50 up to about 1.1 µM and inactive = higher.
Key:
Test in all cases: NCI-60 cell line screen, 48 h
SNB-19 = tested on: SNB-19
NCI-H460 = tested on: NCI-H460
TK-10 = tested on: TK-10
Malme-3M = tested on: Malme-3M
NCI-H23 = tested on: NCI-H23
BT-549 = tested on: BT-549
M14 = tested on: M14
HT-29 = tested on: HT-29
SN12C = tested on: SN12C
786-0 = tested on: 786-0
A549 = tested on: A549
A498 = tested on: A498
OVCAR-4 = tested on: OVCAR-4
IGROV-1 = tested on: IGROV-1
EKVX = tested on: EKVX
MOLT-4 = tested on: MOLT-4
MDA-MB-231 = tested on: MDA-MB-231
SF-295 = tested on: SF-295
SK-MEL-2 = tested on: SK-MEL-2
RPMI-8226 = tested on: RPMI-8226
COLO 205 = tested on: COLO 205
CCRF-CEM = tested on: CCRF-CEM
T47D = tested on: T47D
KM12 = tested on: KM12
SR = tested on: SR
HOP-92 = tested on: HOP-92
SF-539 = tested on: SF-539
OVCAR-8 = tested on: OVCAR-8
PC-3 = tested on: PC-3
HCT-116 = tested on: HCT-116
HL-60 = tested on: HL-60
LOX IMVI = tested on: LOX IMVI
OVCAR-5 = tested on: OVCAR-5
SK-OV-3 = tested on: SK-OV-3
SNB-75 = tested on: SNB-75
K562 = tested on: K562
MDA-N = tested on: MDA-N
Hs-578T = tested on: Hs-578T
SW-620 = tested on: SW-620
HOP-62 = tested on: HOP-62
ACHN = tested on: ACHN
MDA-MB-435 = tested on: MDA-MB-435
OVCAR-3 = tested on: OVCAR-3
DU-145 = tested on: DU-145
SF-268 = tested on: SF-268
NCI-H226 = tested on: NCI-H226
CAKI-1 = tested on: CAKI-1
SK-MEL-28 = tested on: SK-MEL-28
SK-MEL-5 = tested on: SK-MEL-5
UACC-257 = tested on: UACC-257
RXF 393 = tested on: RXF 393
UO-31 = tested on: UO-31
U-251 = tested on: U-251
MCF7 = tested on: MCF7
NCI-H522 = tested on: NCI-H522
UACC-62 = tested on: UACC-62
NCI/ADR-RES = tested on: NCI/ADR-RES
HCT-15 = tested on: HCT-15
HCC 2998 = tested on: HCC 2998

COc1cc2c(cc1OC)C13CCN4C=C5CCOC6CC(=O)N2C1C6C5CC43 (stereo unspecified)
GI50 (SNB-19): > 100 µM (inactive) | GI50 (NCI-H460): > 100 µM (inactive) | GI50 (TK-10): > 100 µM (inactive) | GI50 (Malme-3M): > 100 µM (inactive) | GI50 (NCI-H23): > 100 µM (inactive) | GI50 (BT-549): > 100 µM (inactive) | GI50 (M14): > 100 µM (inactive) | GI50 (HT-29): > 100 µM (inactive) | GI50 (SN12C): > 100 µM (inactive) | GI50 (786-0): > 100 µM (inactive) | GI50 (A549): > 100 µM (inactive) | GI50 (A498): > 100 µM (inactive) | GI50 (OVCAR-4): > 100 µM (inactive) | GI50 (IGROV-1): > 100 µM (inactive) | GI50 (EKVX): > 100 µM (inactive) | GI50 (MOLT-4): > 100 µM (inactive) | GI50 (MDA-MB-231): > 100 µM (inactive) | GI50 (SF-295): > 100 µM (inactive) | GI50 (SK-MEL-2): > 100 µM (inactive) | GI50 (RPMI-8226): > 100 µM (inactive) | GI50 (COLO 205): > 100 µM (inactive) | GI50 (CCRF-CEM): > 100 µM (inactive) | GI50 (T47D): > 100 µM (inactive) | GI50 (KM12): > 100 µM (inactive) | GI50 (SR): > 100 µM (inactive) | GI50 (HOP-92): > 100 µM (inactive) | GI50 (SF-539): > 100 µM (inactive) | GI50 (OVCAR-8): > 100 µM (inactive) | GI50 (PC-3): > 100 µM (inactive) | GI50 (HCT-116): > 100 µM (inactive) | GI50 (HL-60): > 100 µM (inactive) | GI50 (LOX IMVI): > 100 µM (inactive) | GI50 (OVCAR-5): > 100 µM (inactive) | GI50 (SK-OV-3): > 100 µM (inactive) | GI50 (SNB-75): > 100 µM (inactive) | GI50 (K562): > 100 µM (inactive) | GI50 (MDA-N): > 100 µM (inactive) | GI50 (Hs-578T): > 100 µM (inactive) | GI50 (SW-620): > 100 µM (inactive) | GI50 (HOP-62): > 100 µM (inactive) | GI50 (ACHN): > 100 µM (inactive) | GI50 (MDA-MB-435): > 100 µM (inactive) | GI50 (OVCAR-3): > 100 µM (inactive) | GI50 (DU-145): > 100 µM (inactive) | GI50 (SF-268): > 100 µM (inactive) | GI50 (NCI-H226): > 100 µM (inactive) | GI50 (CAKI-1): > 100 µM (inactive) | GI50 (SK-MEL-28): > 100 µM (inactive) | GI50 (SK-MEL-5): > 100 µM (inactive) | GI50 (UACC-257): > 100 µM (inactive) | GI50 (RXF 393): > 100 µM (inactive) | GI50 (UO-31): > 100 µM (inactive) | GI50 (U-251): > 100 µM (inactive) | GI50 (MCF7): > 100 µM (inactive) | GI50 (NCI-H522): > 100 µM (inactive) | GI50 (UACC-62): > 100 µM (inactive) | GI50 (NCI/ADR-RES): > 100 µM (inactive) | GI50 (HCT-15): > 100 µM

CNC(=O)OCCN1c2ccccc2Sc2ccccc21
GI50 (SNB-19): > 100 µM (inactive) | GI50 (NCI-H460): 86.7 µM (inactive) | GI50 (TK-10): > 100 µM (inactive) | GI50 (Malme-3M): > 100 µM (inactive) | GI50 (NCI-H23): > 100 µM (inactive) | GI50 (BT-549): > 100 µM (inactive) | GI50 (M14): > 100 µM (inactive) | GI50 (HT-29): > 100 µM (inactive) | GI50 (SN12C): > 100 µM (inactive) | GI50 (786-0): > 100 µM (inactive) | GI50 (A549): 87.1 µM (inactive) | GI50 (A498): 57.5 µM (inactive) | GI50 (OVCAR-4): > 100 µM (inactive) | GI50 (IGROV-1): 42.1 µM (inactive) | GI50 (EKVX): 17.1 µM (inactive) | GI50 (MOLT-4): > 100 µM (inactive) | GI50 (MDA-MB-231): 0.64 µM (active) | GI50 (SF-295): 60.8 µM (inactive) | GI50 (COLO 205): > 100 µM (inactive) | GI50 (CCRF-CEM): > 100 µM (inactive) | GI50 (T47D): > 100 µM (inactive) | GI50 (KM12): > 100 µM (inactive) | GI50 (SR): > 100 µM (inactive) | GI50 (HOP-92): 50.4 µM (inactive) | GI50 (SF-539): > 100 µM (inactive) | GI50 (OVCAR-8): > 100 µM (inactive) | GI50 (PC-3): 46.6 µM (inactive) | GI50 (HCT-116): 74 µM (inactive) | GI50 (HL-60): > 100 µM (inactive) | GI50 (LOX IMVI): 91.6 µM (inactive) | GI50 (OVCAR-5): > 100 µM (inactive) | GI50 (SK-OV-3): > 100 µM (inactive) | GI50 (K562): > 100 µM (inactive) | GI50 (MDA-N): > 100 µM (inactive) | GI50 (Hs-578T): > 100 µM (inactive) | GI50 (SW-620): > 100 µM (inactive) | GI50 (HOP-62): 14.1 µM (inactive) | GI50 (ACHN): 73.6 µM (inactive) | GI50 (MDA-MB-435): > 100 µM (inactive) | GI50 (OVCAR-3): 63.2 µM (inactive) | GI50 (DU-145): > 100 µM (inactive) | GI50 (HCC 2998): > 100 µM (inactive) | GI50 (SF-268): > 100 µM (inactive) | GI50 (NCI-H226): 47.9 µM (inactive) | GI50 (CAKI-1): 36.4 µM (inactive) | GI50 (SK-MEL-28): > 100 µM (inactive) | GI50 (SK-MEL-5): 50.4 µM (inactive) | GI50 (UACC-257): > 100 µM (inactive) | GI50 (RXF 393): 19.2 µM (inactive) | GI50 (UO-31): 69.2 µM (inactive) | GI50 (U-251): > 100 µM (inactive) | GI50 (MCF7): > 100 µM (inactive) | GI50 (NCI-H522): > 100 µM (inactive) | GI50 (UACC-62): 4.99 µM (inactive) | GI50 (NCI/ADR-RES): > 100 µM (inactive) | GI50 (HCT-15): > 100 µM

CCOC(=O)[C@@H](NC(=O)OC(C)(C)C)[C@@H](O)C(=O)OCC
GI50 (SNB-19): > 100 µM (inactive) | GI50 (NCI-H460): > 100 µM (inactive) | GI50 (TK-10): > 100 µM (inactive) | GI50 (Malme-3M): > 100 µM (inactive) | GI50 (NCI-H23): > 100 µM (inactive) | GI50 (BT-549): > 100 µM (inactive) | GI50 (M14): > 100 µM (inactive) | GI50 (HT-29): > 100 µM (inactive) | GI50 (SN12C): > 100 µM (inactive) | GI50 (786-0): > 100 µM (inactive) | GI50 (A549): > 100 µM (inactive) | GI50 (A498): 69.5 µM (inactive) | GI50 (OVCAR-4): > 100 µM (inactive) | GI50 (IGROV-1): > 100 µM (inactive) | GI50 (EKVX): > 100 µM (inactive) | GI50 (MOLT-4): > 100 µM (inactive) | GI50 (MDA-MB-231): > 100 µM (inactive) | GI50 (SF-295): > 100 µM (inactive) | GI50 (SK-MEL-2): > 100 µM (inactive) | GI50 (RPMI-8226): > 100 µM (inactive) | GI50 (COLO 205): > 100 µM (inactive) | GI50 (CCRF-CEM): > 100 µM (inactive) | GI50 (T47D): > 100 µM (inactive) | GI50 (KM12): > 100 µM (inactive) | GI50 (SR): > 100 µM (inactive) | GI50 (HOP-92): > 100 µM (inactive) | GI50 (OVCAR-8): > 100 µM (inactive) | GI50 (PC-3): > 100 µM (inactive) | GI50 (HCT-116): > 100 µM (inactive) | GI50 (HL-60): > 100 µM (inactive) | GI50 (LOX IMVI): > 100 µM (inactive) | GI50 (OVCAR-5): > 100 µM (inactive) | GI50 (SK-OV-3): > 100 µM (inactive) | GI50 (SNB-75): > 100 µM (inactive) | GI50 (K562): > 100 µM (inactive) | GI50 (MDA-N): > 100 µM (inactive) | GI50 (Hs-578T): > 100 µM (inactive) | GI50 (SW-620): > 100 µM (inactive) | GI50 (HOP-62): > 100 µM (inactive) | GI50 (ACHN): > 100 µM (inactive) | GI50 (MDA-MB-435): > 100 µM (inactive) | GI50 (OVCAR-3): > 100 µM (inactive) | GI50 (DU-145): > 100 µM (inactive) | GI50 (HCC 2998): 62.8 µM (inactive) | GI50 (SF-268): > 100 µM (inactive) | GI50 (NCI-H226): > 100 µM (inactive) | GI50 (CAKI-1): > 100 µM (inactive) | GI50 (SK-MEL-28): > 100 µM (inactive) | GI50 (SK-MEL-5): > 100 µM (inactive) | GI50 (UACC-257): > 100 µM (inactive) | GI50 (RXF 393): > 100 µM (inactive) | GI50 (UO-31): > 100 µM (inactive) | GI50 (U-251): > 100 µM (inactive) | GI50 (MCF7): > 100 µM (inactive) | GI50 (UACC-62): > 100 µM (inactive) | GI50 (NCI/ADR-RES): > 100 µM (inactive) | GI50 (HCT-15): > 100 µM
